Measurements from patent US10907159B2, “Methods of treating cancer by inhibition of DNA repair proteins using antisense based therapies” (SARISSA INC., priority 2015, dated 2021).
“Also recorded” adds a separate entry of the source. Read-outs that look alike come from different tables or passages of the source. Each block holds one compound with its values, some of them ahead of it. d = 2'-deoxy (DNA); m = 2'-O-methyl

Columns and labels:
Type in all cases: cell-based, human
[1] = tested on: A549b cells; test: Proliferation of A549b cells after OLIGO/siRNA transfection (cell counting); settings: for relative proliferation: FIG. 12
Experimental: Cultured cell lines were maintained in minimum essential medium a with nucleosides plus 10% fetal bovine serum and penicillin (50 units/mL)/streptomycin (50 mg/L) (growth medium). Cultures were incubated in a humidified atmosphere of 5% CO2 at 37° C. Cultured cell lines were maintained and cytotoxicity assays conducted as described previously (3). Rapidly proliferating cells were utilized for establishing cultures of experimental cells, which were allowed to plate overnight in 25-cm^2 flasks prior to manipulation. An established cell line of non-small-cell lung carcinoma (NSCLC), A549b, which was propagated by serial dilution from a single cell of an A549 parent cell line, was used for the establishment of antisense activity of oligonucleotides. This cell line proliferates with a mean generation time of approximately 20 hours, and is capable of forming tumours in immunodeficient mice with a take rate of greater than 90%. Therefore, this cell line is a good model system that can be used in both in vitro and in vivo experiments to test the activity of OLIGOs.
OLIGOs were introduced into cells with the use of Lipofectamine 2000 (LFA2K) (Invitrogen, Burlington, Ontario, Canada). OLIGOs were mixed with LFA2K at a ratio of 0.2 μg/ml per 10 nM OLIGO. The mixture was prepared at 11× the final concentration to which cells were exposed, so that 200 μL was added to 2 mL of medium in which cells were plated. As controls, cells were exposed to medium alone (no treatment), LFA2K alone at concentrations equivalent to those used in combination with OLIGOs (in some experiments only the maximum LFA2K concentration was used as a control), or OLIGO having no complementarity with any human mRNA. The OLIGO/LFA2K mixtures were then incubated at room temperature for 20 minutes, according to instructions supplied with the LFA2K, followed by addition of the OLIGOs to the cell medium. The OLIGO/LFA2K mix was then incubated (37° C.) on the cells for 4 hours, after which a second volume of medium was added. Cells were then incubated for 20 hours. Following this incubation, the OLIGO-containing medium was replaced with drug-free medium (i.e. medium without OLIGOs) and the cells were incubated for an additional 4 days. Following the 4-day incubation, the proliferation of the treated cells (fold-increase in cell number) was calculated as a percentage of that of control cells. Cell numbers were enumerated on an electronic particle counter (Beckman Coulter, Mississauga, ON). For the purpose of determining the anti-proliferative effect of antisense OLIGOs, the proliferation of cells treated with antisense OLIGOs was calculated as a percent of that of cells treated with an equivalent concentration of non-complementary control OLIGO (in this case OLIGO 32) mixed with an equivalent amount of LFA2K.
OLIGO-containing medium was removed and replaced with fresh medium. Cells were incubated for 4 days, at which time cell number was counted. Proliferation was calculated as a percent of non-targeting OLIGO-treated controls.
Cells were incubated for 4 days, at which time cell number was counted. Proliferation was calculated as a percent of controls.

[2] = tested on: TS mRNA; test: RT-qPCR of TS mRNA in A549 cells after OLIGO transfection; settings: 20 nM OLIGO, 24 hours post-transfection; FIG. 16
Experimental: (§1) Briefly, A549 cells seeded at a density of 2.0×10^5 per flask were transfected with 20 nM of OLIGO specific for each target or control OLIGO using Lipofectamine 2000 as the transfection reagent. Twenty four hours post-transfection mRNA was extracted and reverse transcribed into cDNA. RT-qPCR was performed for target mRNA levels using TaqMan reagents according to established protocols.

[3] = tested on: BRCA2 mRNA; test: RT-qPCR of BRCA2 mRNA in A549 cells after OLIGO transfection; settings: 20 nM OLIGO, 24 hours post-transfection; FIG. 16
Experimental: as §1

[4] = tested on: A549b cells; test: cells; settings: Homo sapiens, curves extrapolated, unit inferred, read-out: concentration of olaparib required to inhibit proliferation of A549b cells by 50% (IC50)
Experimental: OLIGOs were introduced into cells with the use of Lipofectamine 2000 (LFA2K) (Invitrogen, Burlington, Ontario, Canada). OLIGOs were mixed with LFA2K at a ratio of 0.2 μg/ml per 10 nM OLIGO. The mixture was prepared at 11× the final concentration to which cells were exposed, so that 200 μL was added to 2 mL of medium in which cells were plated. After incubating at room temperature for 20 minutes, according to manufacturer's instructions, the OLIGOs were added to the cell medium. The OLIGO/LFA2K mix was then incubated (37° C.) on the cells for 4 hours, after which a second volume of medium was added. Cells were then incubated for 20 hours. Following this incubation, the OLIGO-containing medium was replaced with OLIGO-free medium.
For cells treated with the drug olaparib, for the purposes of determining whether inhibitory activity was enhanced by the OLIGO pretreatment, olaparib was added at this time, in concentrations of from 0.01 μM to 3 μM. At this point, replicate flasks from the OLIGO-treatment were used to enumerate cell content, as this varied among treatments over the initial 24-hour exposure. This was done so that the effect of treatment with olaparib could be ascertained based on the cell population that was present at the time of initiation of exposure to olaparib. Exposure to the olaparib was initiated by addition of 0.2-volume of a preparation of the drug, at 6× final concentration in growth medium, to the fresh drug-free medium on the cells (1 ml of drug into 5 ml of medium). Following a further 4-day incubation, the proliferation of the treated cells (fold-increase in cell number) was calculated as a percentage of that of control cells. Cell numbers were enumerated on an electronic particle counter (Beckman Coulter, Mississauga, ON). As indicated in Example 1, for the purpose of determining the anti-proliferative effect of antisense OLIGOs alone, the proliferation of cells treated with antisense OLIGOs was calculated as a percent of that of cells treated with an equivalent concentration of non-complementary control OLIGO (in this case OLIGO 32). However, for the purpose of determining the anti-proliferative effect of olaparib against antisense or non-complementary (control) OLIGO-treated cells, the proliferation was calculated as a percent of cells treated with the respective OLIGO.
These experiments were carried out essentially as described in Example 3, with the following changes. The drug tested was cisplatin instead of olaparib, and cisplatin was tested in concentrations ranging from 0.5 μM to 2 μM.
These experiments were carried out essentially as described in Example 3, with the following changes. The drug tested was melphalan in concentrations ranging from 2 μM to 10 μM.
These experiments were carried out essentially as described in Example 3, with the following changes. The drug tested was carboplatin at concentrations ranging from 5 μM to 40 μM.
These experiments were carried out essentially as described in Example 3, with the following changes. The drug tested was oxaliplatin was tested in concentrations ranging from 0.2 μM to 2.5 μM.
Cisplatin was added to the final concentration indicated, and as described in Example 3. Cells were incubated for 4 days, at which time cell number was counted. Proliferation was calculated as a percent of siRNA-treated, non-cisplatin-treated controls.

[5] = tested on: SKOV-3 cells; test: Cell proliferation assay, ASO transfection and/or drug (cell counting); settings: single olaparib treatment, 96 hours; FIG. 27C
Experimental: FIG. 24 illustrates that BRCA2 inhibition sensitizes ovarian cancer and breast cancer cell lines to olaparib treatment. SKOV-3 (A) and CaOV3 (B) cells were transfected with control ASO (•) or BRCA2 ASO (∘) and then treated with three different concentrations of olaparib. Proliferation was determined by cell counting 96 hours post-transfection (*p<0.05). C: BRCA2 mRNA levels were measured by qPCR 24 hours following BRCA2 ASO transfection in SKOV-3, CaOV3, 211 H and H2052 cell lines.
E: SKOV-3 cells were transfected with control or BRCA2 ASO and then treated with olaparib 24 hours post transfection. Ninety-six hours post transfection, cells were counted, plated, and re-transfected with control ASO or BRCA2 ASO and re-treated with olaparib. Cell counts were performed 96 hours post transfection (*p<0.05). […]
A: BRCA2-wild type SKOV-3 cells (black bars), […] MCF-7 cells (white bars), and BRCA2-mutated CAPAN-1 cells (grey bars) were treated simultaneously but separately with BRCA2 ASO (20 nM). […] Ninety-six hours post-transfection, cells were counted and proliferation determined (% of proliferation after control ASO treatment).
C: SKOV-3, MCF-7 and CAPAN-1 cells were treated with two different concentrations of olaparib for 96 hours. After drug treatment they were counted and proliferation was determined as a percent of that of vehicle-treated cells. […]

[6] = tested on: MCF-7 cells; test: Cell proliferation assay, ASO and/or olaparib (cell counting); settings: single olaparib treatment, 96 hours, vs vehicle; FIG. 27C
Experimental: (§2) A: BRCA2-wild type SKOV-3 cells (black bars), […] MCF-7 cells (white bars), and BRCA2-mutated CAPAN-1 cells (grey bars) were treated simultaneously but separately with BRCA2 ASO (20 nM). Due to differing growth medium requirements and to avoid fluorescent label-induced changes in drug sensitivity, cells were not co-cultured. They were treated independently, at the same time with the same materials. Ninety-six hours post-transfection, cells were counted and proliferation determined (% of proliferation after control ASO treatment).
(§3) C: SKOV-3, MCF-7 and CAPAN-1 cells were treated with two different concentrations of olaparib for 96 hours. After drug treatment they were counted and proliferation was determined as a percent of that of vehicle-treated cells.
FIG. 28 illustrates combined BRCA2 ASO and olaparib treatment decreases the proliferation of both HRR-deficient and HRR-proficient cells. […] Proliferation was determined using cell counting 96 hours post-transfection.
Four hours post-transfection, cells were seeded into 6 well dishes in appropriate experimental groups. […] Ninety-six hours post transfection, cells were collected and counted (Coulter Particle Counter). Proliferation was determined based on initial cell density and calculated as a percentage of ASO+vehicle treated cells.

[7] = tested on: CAPAN-1 cells; test: Cell proliferation assay, ASO and/or drug (cell counting); settings: single olaparib treatment, 96 hours, vs vehicle; FIG. 27C
Experimental: as §2, §3
Four hours post-transfection, cells were seeded into 6 well dishes in appropriate experimental groups. Twenty-four hours post transfection, cells were treated with olaparib (Selleckchem) at three concentrations. Ninety-six hours post transfection, cells were collected and counted (Coulter Particle Counter). Proliferation was determined based on initial cell density and calculated as a percentage of ASO+vehicle treated cells.

[8] = tested on: mixed cell population SKOV-3^shBRCA2:SKOV-3^shControl 3:1; test: Co-culture model of BRCA2 heterogeneity, proliferation; settings: 2.5 μM, FIG. 29A
Experimental: (§4) A: SKOV-3^shBRCA2 cells (low BRCA2) were mixed with SKOV-3^shControl cells (high BRCA2) at a 3:1 ratio, resulting in a primarily HRR-deficient mixed cell population. Parental and mixed populations were treated for the first time with olaparib (1° olaparib, 2.5 μM) or vehicle. Cells were re-plated at equal density 96 hours post-treatment. Parental and mixed populations were then treated a second time with olaparib (2° olaparib, 2.5 μM) or control vehicle. Ninety-six hours post-treatment, proliferation for all groups was determined based on cell counts and seeding density following 1° olaparib or vehicle treatment. White bars: 2° olaparib. Black bars: no 2° olaparib.
B: SKOV-3^shBRCA2 cells (low BRCA2), SKOV-3^shControl cells (high BRCA2), and a mixed cell population (3:1, low BRCA2:high BRCA2) were transfected with control ASO or BRCA2 ASO followed by treatment with vehicle or olaparib (2.5 μM). Proliferation (percent of control ASO-treated cells) was determined 96 hours post-transfection. […]
(§5) To mimic a heterogeneous tumor cell population that is predominantly HRR-deficient, we co-cultured SKOV-3^shBRCA2 (low BRCA2) and SKOV-3^shcontrol (high BRCA2) in a 3:1 ratio. The mixed cell population, along with unmixed SKOV-3^shBRCA2 and SKOV-3^shcontrol populations, was treated with olaparib (1° Olaparib), then counted, re-seeded and treated with olaparib a second time (2° Olaparib) (FIG. 32).

[9] = tested on: SKOV-3^shBRCA2 cells (low BRCA2); test: Co-culture model, unmixed population, proliferation; settings: olaparib 2.5 μM; FIG. 29A
Experimental: as §4, §5

Compound: 5′-gccaguGGCAACATccuuaa-3′ (antisense GCCAGUGGCAACATCCUUAA; sugars from the 5' end m6 d8 m6, all phosphorothioate, methylation of C not given here) [OLIGO 83]
- relative proliferation ([1]; 20 nM OLIGO 83, vs OLIGO 491S): approximately 20%
- effect on TS mRNA level [2]: reduction in TS mRNA
- effect on BRCA2 mRNA level [3]: no significant effect on BRCA2 mRNA

Compound: 5′-ugcccgATACACAAacgcug -3′ (UGCCCGATACACAAACGCUG; gapmer, lower-case wings modified, type not given here) [BR3]
- relative proliferation ([1]; 10 nM of BR3, vs equivalent concentration of OLIGO 491S): approximately 85%
- anti-proliferative effect as single agent ([1]; A549/A549b cells, 4 h transfection, counted after 4 d, vs non-targeting control OLIGO): inhibit proliferation of human non-small cell lung cancer A549 cells in a concentration-dependent manner; also recorded: antiproliferative on its own

- IC50 ([4]; in the absence of BR1 (control OLIGO 32)): ~5000 nM
- IC50 ([4]; in the presence of BR1 pretreatment): ~50 nM
Compound: O=C(c1cc(Cc2n[nH]c(=O)c3ccccc23)ccc1F)N1CCN(C(=O)C2CC2)CC1 [olaparib, reference compound]
- effect of olaparib on proliferation [5]: no effect on SKOV-3 proliferation
- decreased the proliferation [6]: 39%±6.8%
- decreased the proliferation [7]: 94%±4.6%
- response to initial olaparib treatment ([8]; 1° olaparib): sensitive to initial treatment with olaparib
- response to second olaparib treatment ([8]; 2° olaparib): completely unresponsive to a second treatment
- response to olaparib after two treatments [9]: remained sensitive to olaparib even after two treatments

Compound: 5′-UUAUCCAGGACAUCACUGC-3′ [RADb]
- inhibited proliferation of A549b cells ([1]; siRNA at 2 nM, FIG. 21): over 50%
